The record followed here is patent publication US12616753B2, “HSP70 inhibitors and methods of using same” (THE WISTAR INSTITUTE, priority 2020, dated 2026).

The experiment deals with MRPS14, NDUFA6, EGFR, AKT, mutant p53. Kind of experiment: Western blot of HSP70 client proteins in human tumor cell lines. The class given is cell-based. As for the experimental part:
Proteins were identified using False Discovery Rate (FDR) values less than 10% and p values less than 0.05. FIG. 3C: Three different melanoma cell lines (WM983B, WM4265, and 1205Lu) were treated with the indicated concentrations of AP-4-139B for 24 hours. Cell lysates were subjected to Western blot analysis, and immunoblotted for NDUFA6, MRPS14, and GAPDH (loading control). FIGS. 3D-3E: HT-29 (FIG. 3D) and LS411N (FIG. 3E) CRC cell lines were treated with the indicated concentrations of PET-16 or AP-4-139B for 48 hours. Cell lysates were subjected to Western blot analysis, and immunoblotted for EGFR, MRPS14, AKT, Cleaved Lamin A (CLA), Cleaved Caspase 3 (CC3), HSP70, HSP90 and GAPDH (loading control). FIG. 3F: HT-29 cells were treated with the indicated concentration of AP-4-139B, Gamitrinib (G-TPP), or VY-3-277 (negative control) for 48 hours. Cell lysates were subjected to Western blot analysis, and immunoblotted for HSP90, AKT, p53, and MRPS14.
Cell lysates were subjected to Western blot analysis, and immunoblotted for MRPS14, NDUFA6, BAK, COXIV, and GAPDH (loading control).
Antibodies used were purchased from: p53 (Ab-6) (DO-1, Millipore Sigma), p53 (1C12) (2524S), Cleaved Caspase 3 (9661S), Cleaved Lamin A (2035S), HSP90 (4877S), EGFR (4267S), HMGB1 (6893S), HSP70 (4873S), AKT (9272S), and GAPDH (2218S) (Cell Signaling, Danvers, MA, USA), MRPS14 (ab151118) (Abcam, Cambridge, MA, USA), NDUFA6 (GTX65550) (GeneTex, Irvine, CA, USA), BAK (H-211, sc-7873; Santa Cruz Biotechnology, Inc., Dallas, TX, USA), and HSP70 (C92F3A-5) (Enzo Life Sciences, Farmingdale, NY, USA). 17-AAG (Item No. 11039) and Metformin (Item No. 13118) were purchased from Cayman Chemical (Ann Arbor, MI, USA). Gamitrinib (G-TPP, HY-102007A) was purchased from MedChemExpress (Monmouth Junction, NJ, USA). All HSP70 inhibitors used were generated and confirmed by NMR. PLX-4720 was purchased from Chemietek (Catalog No. CT-P4720; Indianapolis, IN, USA). For in vitro studies, AP-4-139B was dissolved in DMSO. […]

Take `c1ccc(-c2cn3nc(CCCCCC[P+](c4ccccc4)(c4ccccc4)c4ccccc4)sc3n2)cc1` [AP-4-139B, Triphenyl(6-(6-phenylimidazo[2,1-b][1,3,4]thiadiazol-2-yl)hexyl)phosphonium bromide]: for the setting “HT-29 and LS411N, 48 hours”, the “level of HSP70/HSP90 client proteins EGFR, AKT, mutant p53” value is “decreased”. Besides, under “colorectal cancer cell lines, IC50, 24 hours”, the “level of BAK and CoxIV and other mitochondrial proteins” value was “unaffected”. Also, under “several tumor cell lines”, the “level of MRPS14 and NDUFA6” value is “significantly decreased level of MRPS14 and NDUFA6”.
